# Laboratory results taken from paper PMC10041537, “Molecular origins of mutational spectra produced by the environmental carcinogen N-nitrosodimethylamine and SN1 chemotherapeutic agents” (NAR Cancer, 2023).
# Legend:
# [1] = system: mouse genome; experiment: Duplex sequencing, high-resolution mutational spectra and pLOGO of liver of NDMA-treated Mgmt−/− mice; type: in vivo
# Description: (§1) Most experiments utilized C57BL/6J gptΔ transgenic mice ([49],[50]), a gift from T. Nohmi. Some experiments used RaDR^R/R;gpt^g/g;Mgmt^−/− mice, which were created by crossing RaDR^R/R;gpt^g/gmice ([37]) with Mgmt^−/− mice ([51]). NDMA was synthesized and characterized as previously described ([52]) (Fig. S1). […] The first dose (3.5 mg/kg in 10 μl) was administered at 8 days of age, and the second dose (7 mg/kg in 20 μl) was administered at 15 days of age. Vehicle treated mice were administered equivalent volumes of saline. Mice were euthanized at ten weeks post-injection by CO2 inhalation. Both male and female mice were used in all experimental groups (n = 5) in all mouse experiments.
# (§2) To determine the identity of mutations and the sequence contexts in which they occur, we utilized a form of error-corrected sequencing called duplex sequencing (DS). Previously, we described how DS can be used directly on genomic samples derived from the gptΔ mouse to yield high-resolution mutational spectra in an unbiased (unselected) manner ([49]). Unlike the traditional gptΔ assay, DS evaluates the mutations throughout the entire 6382 bp transgenic region (which contains the gpt gene), without the need for a phenotypic selection. In the present work, 6.4 kb gpt-containing plasmids from gptΔ mouse livers and cell culture were isolated using a Miniprep Kit (Qiagen) following instructions of the manufacturer. Approximately 6 μg of plasmid DNA was diluted in 1× TE buffer-low EDTA, pH 8 (Thermo Scientific), transferred to a microTUBE AFA Fiber Pre-Slit Snap-Cap (Covaris) and sonicated using a Covaris E220 Focused-ultrasonicator. The following program was used to obtain 300–350 bp fragments: peak incident power = 140 W, duty factor = 10%, cycles per burst = 200, treatment time = 80 s, temperature = 4–7°C. DS libraries for gptΔ C57BL/6J mice and MEFs were prepared using the NEBNext Ultra II DNA Library Prep (E7103, NEB) or as described in Chawanthayatham et al. ([49]) and sequenced on a NextSeq500 or NovaSeq 6000 Illumina platform by using a 150 bp paired-end protocol (MIT BioMicro Center). DS libraries for the gptΔ mouse lungs and Mgmt^−/− mice were prepared using an input of 1 μg or 500 ng genomic DNA, respectively, using a TwinStrand Biosciences, Inc. Mouse Mutagenesis Kit according to the manufacturer's protocol. This kit uses probes that hybridize to 20 genomic regions, each 2.4 kb long. The genomic coordinates are provided in Supplementary Table S1. These probes were purposely selected to map in intronic and intergenic regions, to avoid selection bias. The libraries were sequenced on an Illumina NovaSeq 6000 DNA sequencer on an S4 flow cell using a 150 bp paired-end protocol (MIT BioMicro Center).
# (§3) For each sample, the two fastq files generated by the Illumina sequencer were converted into an unaligned bam file, using Picard Tools. The resulting bam file was processed using UnifiedConsensusMaker.py (version 3.0) as available from the Kennedy Lab at University of Washington (https://github.com/Kennedy-Lab-UW/Duplex-Sequencing). Briefly, this program queries the molecular tags on each read and assembles them into families (strands with the same tag). These are subsequently collapsed into single-strand consensus sequences (SSCS). Then, the software identifies the SSCS corresponding to the complementary strand; these are grouped together as a double-strand consensus sequence (DCS). Unpaired SSCSs were flagged and ignored for the rest of the analysis. Sequence information was accepted only when the information from the two complementary DNA strands was in perfect agreement. The DCSs (as fastq files) were subsequently aligned to the target region (6382 nt in the λ-EG10 genome) using Burrows-Wheeler aligner. Unmapped reads were filtered out. Finally, the properly aligned DCS reads were trimmed (bases 1–8 and 120–137) and collapsed into a pileup file using SamTools. […]
# [2] = system: mouse genome; experiment: Duplex sequencing, high-resolution mutational spectra and pLOGO of liver and lung of NDMA-treated wild-type mice; type: in vivo, gptΔ C57BL/6J mice
# Description: as §1, §2, §3
# [3] = system: C57BL/6J mice; set-up: method as in PMID 9500198; conditions: cited from earlier work
# [4] = C at -6 relative to G→A mutation, liver, WT mice
# [5] = C57BL/6J male mice, neonatal model
structure (smiles),measurement,setting,value
"CN(C)N=O [NDMA, N-nitrosodimethylamine]",pLOGO Frequency (%),"[1]; A at 1, liver, Mgmt−/− mice",31.4%
same,pLOGO Value (log-odds binomial probability),"[1]; A at 1, liver, Mgmt−/− mice",47.10
same,pLOGO Frequency (%),"[1]; A at 2, liver, Mgmt−/− mice",31.0%
same,pLOGO Value (log-odds binomial probability),"[1]; A at 2, liver, Mgmt−/− mice",26.02
same,pLOGO Frequency (%),"[1]; A at 3, liver, Mgmt−/− mice",29.4%
same,pLOGO Value (log-odds binomial probability),"[1]; A at 3, liver, Mgmt−/− mice",12.99
same,pLOGO Frequency (%),"[1]; A at 5, liver, Mgmt−/− mice",28.3%
same,pLOGO Value (log-odds binomial probability),"[1]; A at 5, liver, Mgmt−/− mice",3.94
same,pLOGO Frequency (%),"[1]; A at -1, liver, Mgmt−/− mice",42.5%
same,pLOGO Value (log-odds binomial probability),"[1]; A at -1, liver, Mgmt−/− mice",256.46
same,pLOGO Frequency (%),"[1]; A at -2, liver, Mgmt−/− mice",32.8%
same,pLOGO Value (log-odds binomial probability),"[1]; A at -2, liver, Mgmt−/− mice",29.44
same,pLOGO Frequency (%),"[1]; A at -3, liver, Mgmt−/− mice",29.2%
same,pLOGO Value (log-odds binomial probability),"[1]; A at -3, liver, Mgmt−/− mice",4.17
same,pLOGO Frequency (%),"[1]; C at 2, liver, Mgmt−/− mice",24.5%
same,pLOGO Value (log-odds binomial probability),"[1]; C at 2, liver, Mgmt−/− mice",22.44
same,pLOGO Frequency (%),"[1]; G at 4, liver, Mgmt−/− mice",23.1%
same,pLOGO Value (log-odds binomial probability),"[1]; G at 4, liver, Mgmt−/− mice",13.22
same,pLOGO Frequency (%),"[1]; G at 5, liver, Mgmt−/− mice",22.8%
same,pLOGO Value (log-odds binomial probability),"[1]; G at 5, liver, Mgmt−/− mice",3.76
same,pLOGO Frequency (%),"[1]; G at 6, liver, Mgmt−/− mice",24.8%
same,pLOGO Value (log-odds binomial probability),"[1]; G at 6, liver, Mgmt−/− mice",20.10
same,pLOGO Frequency (%),"[1]; G at 7, liver, Mgmt−/− mice",24.2%
same,pLOGO Value (log-odds binomial probability),"[1]; G at 7, liver, Mgmt−/− mice",4.88
same,pLOGO Frequency (%),"[1]; G at -1, liver, Mgmt−/− mice",41.6%
same,pLOGO Value (log-odds binomial probability),"[1]; G at -1, liver, Mgmt−/− mice",324
same,pLOGO Frequency (%),"[1]; G at -2, liver, Mgmt−/− mice",24.3%
same,pLOGO Value (log-odds binomial probability),"[1]; G at -2, liver, Mgmt−/− mice",23.51
same,pLOGO Frequency (%),"[1]; G at -3, liver, Mgmt−/− mice",22.9%
same,pLOGO Value (log-odds binomial probability),"[1]; G at -3, liver, Mgmt−/− mice",4.27
same,pLOGO Frequency (%),"[1]; G at -4, liver, Mgmt−/− mice",22.6%
same,pLOGO Value (log-odds binomial probability),"[1]; G at -4, liver, Mgmt−/− mice",5.86
same,pLOGO Frequency (%),"[1]; G at -5, liver, Mgmt−/− mice",22.8%
same,pLOGO Value (log-odds binomial probability),"[1]; G at -5, liver, Mgmt−/− mice",4.67
same,pLOGO Frequency (%),"[1]; G at -6, liver, Mgmt−/− mice",23.9%
same,pLOGO Value (log-odds binomial probability),"[1]; G at -6, liver, Mgmt−/− mice",4.72
same,"AT→GC mutations, proportion of mutations",[1]; Mgmt−/− mice,1.7%
same,pLOGO Frequency (%),"[1]; T at -2, liver, Mgmt−/− mice",24.7%
same,pLOGO Value (log-odds binomial probability),"[1]; T at -2, liver, Mgmt−/− mice",9.33
same,sequence context of GC→AT mutations,[1]; liver of Mgmt−/− mice,5’-PuGN-3’
same,dominant single-base substitution,"[1]; liver of Mgmt−/− mice, 10 weeks post NDMA",GC→AT mutations
same,cosine similarity of mutational patterns in Mgmt−/− and WT mice,"[1]; liver, baseline-corrected, normalized spectra",0.98
same,pLOGO Frequency (%),"[2]; A at 1, lung, WT mice",32.2%
same,pLOGO Value (log-odds binomial probability),"[2]; A at 1, lung, WT mice",5.89
same,pLOGO Frequency (%),"[2]; A at 2, lung, WT mice",32.0%
same,pLOGO Value (log-odds binomial probability),"[2]; A at 2, lung, WT mice",4.51
same,pLOGO Frequency (%),"[2]; A at 3, liver, WT mice",28.4%
same,pLOGO Value (log-odds binomial probability),"[2]; A at 3, liver, WT mice",4.00
same,pLOGO Frequency (%),"[2]; A at -1, liver, WT mice",30.9%
same,pLOGO Value (log-odds binomial probability),"[2]; A at -1, liver, WT mice",52.74
same,pLOGO Frequency (%),"[2]; A at -1, lung, WT mice",45.9%
same,pLOGO Value (log-odds binomial probability),"[2]; A at -1, lung, WT mice",37.22
same,pLOGO Frequency (%),"[2]; A at -2, lung, WT mice",34.3%
same,pLOGO Value (log-odds binomial probability),"[2]; A at -2, lung, WT mice",6.29
same,pLOGO Frequency (%),"[2]; C at 1, liver, WT mice",38.4%
same,pLOGO Value (log-odds binomial probability),"[2]; C at 1, liver, WT mice",27.34
same,pLOGO Frequency (%),"[2]; C at 4, liver, WT mice",26.0%
same,pLOGO Value (log-odds binomial probability),"[2]; C at 4, liver, WT mice",6.07
same,pLOGO Frequency (%),"[2]; C at -3, liver, WT mice",31.4%
same,pLOGO Value (log-odds binomial probability),"[2]; C at -3, liver, WT mice",22.96
same,pLOGO Frequency (%),"[2]; C at -5, liver, WT mice",26.7%
same,pLOGO Value (log-odds binomial probability),"[2]; C at -5, liver, WT mice",4.79
same,pLOGO Frequency (%),[2]; [4],28.0%
same,pLOGO Value (log-odds binomial probability),[2]; [4],3.68
same,pLOGO Frequency (%),"[2]; G at -1, liver, WT mice",47.4%
same,pLOGO Value (log-odds binomial probability),"[2]; G at -1, liver, WT mice",193.23
same,pLOGO Frequency (%),"[2]; G at -1, lung, WT mice",39.2%
same,pLOGO Value (log-odds binomial probability),"[2]; G at -1, lung, WT mice",64.57
same,pLOGO Frequency (%),"[2]; T at 1, liver, WT mice",23.8%
same,pLOGO Value (log-odds binomial probability),"[2]; T at 1, liver, WT mice",4.97
same,pLOGO Frequency (%),"[2]; T at 1, lung, WT mice",29.1%
same,pLOGO Value (log-odds binomial probability),"[2]; T at 1, lung, WT mice",10.31
same,sequence context dependency of GC→AT mutations,"[2]; WT mice, Pu = purine, N = any base",5’-PuGN-3’
same,"AT→GC mutations, proportion of total number of mutations","[2]; WT mice, after background subtraction",4.6%
same,dominant mutation type of mutational spectrum,"[2]; liver and lung of WT mice, 10 weeks post NDMA",GC→AT transition mutations
same,incidence of hepatic tumors,[3]; [5],~80%
same,incidence of lung tumors,[3]; [5],7%
same,maximum tolerated dose,"[3]; total dose, i.p., neonatal mice",10.5 mg/kg
